The text below walks through data of patent US20230102554A1 (GB002, INC., priority 2019, published 2023).

Test [1] addresses T1, Human PDGFRα, cytoplasmic domain (GST-PDGFRα) (Homo sapiens, UniProt P16234).
T1 construct: made in house
Nature of the test: Human PDGFRα biochemical inhibition assay (off-chip Mobility Shift Assay).

Test [2] has as its target T2, Human PDGFRβ, cytoplasmic domain (GST-PDGFRβ) (Homo sapiens, UniProt P09619).
T2 construct: made in house
Nature of the test: Human PDGFRβ biochemical inhibition assay (off-chip Mobility Shift Assay). Put shortly:
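GST-tagged cytoplasmic domain (aa 557-1106) from baculovirus was incubated 1 h at room temperature with compound, CSKtide, ATP at Km and Mg²⁺ in HEPES buffer, pH 7.5. Phosphorylated and unphosphorylated peptide were separated by off-chip mobility shift, and the product ratio P/(P+S) gave percent inhibition.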

Each structure is given as a SMILES string. Bounds are passed on as bounds.

T2 sequence (P09619 with tags, fused parts or gaps): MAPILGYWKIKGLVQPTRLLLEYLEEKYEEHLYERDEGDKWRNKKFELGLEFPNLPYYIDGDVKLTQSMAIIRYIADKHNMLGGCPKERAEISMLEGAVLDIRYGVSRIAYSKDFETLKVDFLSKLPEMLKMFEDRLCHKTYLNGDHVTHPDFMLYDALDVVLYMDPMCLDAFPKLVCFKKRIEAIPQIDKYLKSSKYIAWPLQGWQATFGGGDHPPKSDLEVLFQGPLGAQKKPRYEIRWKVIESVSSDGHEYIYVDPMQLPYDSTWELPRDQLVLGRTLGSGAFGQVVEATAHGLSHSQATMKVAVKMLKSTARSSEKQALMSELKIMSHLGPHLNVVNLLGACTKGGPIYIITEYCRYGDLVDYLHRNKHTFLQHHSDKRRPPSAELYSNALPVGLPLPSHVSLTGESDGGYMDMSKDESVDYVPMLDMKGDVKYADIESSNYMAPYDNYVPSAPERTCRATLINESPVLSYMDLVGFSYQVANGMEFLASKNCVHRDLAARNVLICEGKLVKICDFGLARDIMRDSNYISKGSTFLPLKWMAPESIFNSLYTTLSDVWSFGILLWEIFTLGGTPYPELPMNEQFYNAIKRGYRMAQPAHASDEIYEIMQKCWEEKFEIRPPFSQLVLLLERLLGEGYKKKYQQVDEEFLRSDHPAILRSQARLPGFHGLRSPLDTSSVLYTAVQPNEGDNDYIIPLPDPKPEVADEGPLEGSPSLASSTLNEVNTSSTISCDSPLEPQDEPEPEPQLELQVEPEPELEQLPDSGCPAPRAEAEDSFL
T1 sequence (P16234 550-1089 T674I): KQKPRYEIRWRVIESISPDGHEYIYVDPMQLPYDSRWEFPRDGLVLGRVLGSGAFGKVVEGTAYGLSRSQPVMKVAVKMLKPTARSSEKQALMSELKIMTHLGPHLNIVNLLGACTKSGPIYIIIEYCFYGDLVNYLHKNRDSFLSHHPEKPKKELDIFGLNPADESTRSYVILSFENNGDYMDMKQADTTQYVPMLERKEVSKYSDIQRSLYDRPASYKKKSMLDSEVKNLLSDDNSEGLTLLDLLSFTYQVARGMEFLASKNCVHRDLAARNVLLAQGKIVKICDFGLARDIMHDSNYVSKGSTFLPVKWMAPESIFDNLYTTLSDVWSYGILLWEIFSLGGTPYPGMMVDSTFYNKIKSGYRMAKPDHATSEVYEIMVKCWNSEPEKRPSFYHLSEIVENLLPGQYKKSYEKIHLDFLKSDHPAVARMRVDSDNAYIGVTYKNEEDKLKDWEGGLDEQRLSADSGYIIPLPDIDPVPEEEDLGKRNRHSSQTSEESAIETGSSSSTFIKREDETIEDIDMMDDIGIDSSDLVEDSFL

As to `CCn1cc2ncc(N[C@@H](C)c3cccc(NC(=O)c4ccc(CN5[C@@H]6CC[C@H]5CN(C)C6)c(C)c4)c3)nc2n1` [Compound 475, N-(3-((S)-1-((2-ethyl-2H-pyrazolo[3,4-b]pyrazin-6-yl)amino)ethyl)phenyl)-3-methyl-4-(((1R,5S)-3-methyl-3,8-diazabicyclo[3.2.1]octan-8-yl)methyl)benzamide], the IC50 in test [1] and in test [2] was less than 300 nM throughout.

Regarding `C[C@H](Nc1cnc2cnn(C)c2n1)c1cccc(NC(=O)c2cnc3cnn(C)c3c2)c1` [Compound 48, (S)-1-methyl-N-(3-(1-((1-methyl-1H-pyrazolo[3,4-b]pyrazin-6-yl)amino)ethyl)phenyl)-1H-pyrazolo[4,3-b] pyridine-6-carboxamide], the IC50 in test [1] and in test [2] was less than 300 nM throughout.

As for `Cc1cncc(C(=O)Nc2cccc([C@H](C)Nc3cnc4cnn(-c5cnn(C)c5)c4n3)c2)c1` [Compound 186, (S)-5-methyl-N-(3-(1-((1-(1-methyl-1H-pyrazol-4-yl)-1H-pyrazolo[3,4-b]pyrazin-6-yl)amino)ethyl)phenyl) nicotinamide], the IC50 in test [1] and in test [2] was less than 300 nM throughout.

`COC(=O)c1ccc(C(=O)Nc2cccc([C@H](C)Nc3cnc4cnn(C)c4n3)c2)cc1OC` [Compound 261, methyl (S)-2-methoxy-4-((3-(1-((1-methyl-1H-pyrazolo[3,4-b]pyrazin-6-yl)amino)ethyl)phenyl)carbamoyl)benzoate]: the IC50 in test [1] and in test [2] was less than 300 nM throughout.

Consider `CCn1cc2ncc(N[C@@H](C)c3cc(NC(=O)Cc4ccc5c(n4)OCCC5)ccc3C)nc2n1` [Compound 721, (S)-2-(3,4-dihydro-2H-pyrano[2,3-b]pyridin-7-yl)N-(3-(1-((2-ethyl-2H-pyrazolo[3,4-b]pyrazin-6-yl)amino)ethyl)-4-methylphenyl)acetamide], for which the IC50 (as a rule, the concentration at which inhibition is half-maximal) in test [1] was less than 300 nM; in test [2], not below 1000 nM.

Take `C[C@H](Nc1cnc2cnn(C)c2n1)c1cccc(NC(=O)c2ccc3ncn(C)c3c2)c1` [Compound 73, (S)-1-methyl-N-(3-(1-((1-methyl-1H-pyrazolo[3,4-b]pyrazin-6-yl)amino)ethyl)phenyl)-1H-benzo[d]imidazole-6-carboxamide]: the IC50 in test [1] and in test [2] was less than 300 nM in each case.

With `Cc1ccc(C(=O)Nc2cccc([C@H](C)Nc3cnc4cnn(C)c4n3)c2)s1` [Compound 133, (S)-5-methyl-N-(3-(1-((1-methyl-1H-pyrazolo[3,4-b]pyrazin-6-yl)amino)ethyl)phenyl)thiophene-2-carboxamide], the IC50 in test [1] and in test [2] was less than 300 nM throughout.

As to `CC(C)c1ccc(C(=O)Nc2cccc([C@H](C)Nc3cnc4cnn(C)c4n3)c2)cn1` [Compound 204, (S)-6-isopropyl-N-(3-(1-((1-methyl-1H-pyrazolo[3,4-b]pyrazin-6-yl)amino)ethyl)phenyl)nicotinamide], the IC50 in test [1] and in test [2] was less than 300 nM each time.

Consider `C[C@H](Nc1cnc2cnn(C)c2n1)c1cccc(NC(=O)c2cncc(Br)c2)c1` [Compound 111, (S)-5-bromo-N-(3-(1-((1-methyl-1H-pyrazolo[3,4-b]pyrazin-6-yl)amino)ethyl)phenyl)nicotinamide], for which the IC50 in test [1] and in test [2] was less than 300 nM in each case.

On to `Cc1cc(C(=O)Nc2cccc([C@H](C)Nc3cnc4cnn(C)c4n3)c2)cnc1F` [Compound 192, (S)-6-fluoro-5-methyl-N-(3-(1-((1-methyl-1H-pyrazolo[3,4-b]pyrazin-6-yl)amino)ethyl)phenyl)nicotinamide], for which the IC50 in test [1] and in test [2] was less than 300 nM each time.

In the case of `C[C@H](Nc1cnc2cnn(C)c2n1)c1cccc(NC(=O)c2ccc(C3CC3)s2)c1` [Compound 136, (S)-5-cyclopropyl-N-(3-(1-((1-methyl-1H-pyrazolo[3,4-b]pyrazin-6-yl)amino)ethyl)phenyl)thiophene-2-carboxamide], the IC50 in test [1] and in test [2] was less than 300 nM throughout.

Turning to `CCNc1ncc(C(=O)Nc2cccc([C@H](C)Nc3cnc4cn(CC)nc4n3)c2)cc1Cl` [Compound 420, (S)-5-chloro-N-(3-(1-((2-ethyl-2H-pyrazolo[3,4-b]pyrazin-6-yl)amino)ethyl)phenyl)-6-(ethylamino)nicotinamide], the IC50 in test [1] and in test [2] was less than 300 nM each time.

Consider `CCn1cc2ncc(N[C@@H](C)c3cccc(NC(=O)c4ccc(C(=O)N5CC[C@@H](N)C5)c(C)c4)c3)nc2n1` [Compound 465, 4-((R)-3-aminopyrrolidine-1-carbonyl)-N-(3-((S)-1-((2-ethyl-2H-pyrazolo[3,4-b]pyrazin-6-yl)amino)ethyl)phenyl)-3-methylbenzamide], for which the IC50 in test [1] was less than 300 nM; in test [2], not below 1000 nM.

For the molecule `CCn1cnc2ccc(C(=O)Nc3cccc([C@H](C)Nc4cnc5cnn(C)c5n4)c3)cc21` [Compound 74, (S)-1-ethyl-N-(3-(1-((1-methyl-1H-pyrazolo[3,4-b]pyrazin-6-yl)amino)ethyl)phenyl)-1H-benzo[d]imidazole-6-carboxamide], the IC50 in test [1] and in test [2] was less than 300 nM in each case.

Regarding `CCn1cc2ncc(N[C@@H](C)c3cccc(NC(=O)Nc4ccc(C(F)(F)F)nc4)c3)nc2n1` [Compound 736, (S)-1-(3-(1-((2-ethyl-2H-pyrazolo[3,4-b]pyrazin-6-yl)amino)ethyl)phenyl)-3-(6-(trifluoromethyl)pyridin-3-yl) urea], the IC50 in test [1] and in test [2] was less than 300 nM throughout.

With `CCn1cc2ncc(N[C@@H](C)c3cccc(NC(=O)Cc4ccc(F)c(F)c4)c3)nc2n1` [Compound 648, (S)-2-(3,4-difluorophenyl)-N-(3-(1-((2-ethyl-2H-pyrazolo[3,4-b]pyrazin-6-yl)amino)ethyl)phenyl)acetamide], the IC50 in test [1] and in test [2] was less than 300 nM each time.

Regarding `C[C@H](Nc1cnc2cnn(C)c2n1)c1cccc(NC(=O)c2ccc(OC(F)(F)F)nc2)c1` [Compound 119, (S)-N-(3-(1-((1-methyl-1H-pyrazolo[3,4-b]pyrazin-6-yl)amino)ethyl)phenyl)-6-(trifluoromethoxy)nicotinamide], the IC50 in test [1] and in test [2] was less than 300 nM in each case.

Regarding `CCc1cncc(C(=O)Nc2cccc([C@H](C)Nc3cnc4cnn(C)c4n3)c2)c1` [Compound 101], the IC50 in test [1] and in test [2] was less than 300 nM in each case.

As for `Cc1cncc(C(=O)Nc2cccc([C@H](C)Nc3cnc4ccc(-c5cnn(C)c5)cc4n3)c2)c1` [Compound 42, (S)-5-methyl-N-(3-(1-((7-(1-methyl-1H-pyrazol-4-yl)quinoxalin-2-yl)amino)ethyl)phenyl)nicotinamide], the IC50 in test [1] and in test [2] was less than 300 nM each time.

As to `CCn1cc2ncc(N[C@@H](C)c3cccc(NC(=O)c4cnc(-n5ccnc5)c(C)c4)c3)nc2n1` [Compound 334, (S)-N-(3-(1-((2-ethyl-2H-pyrazolo[3,4-b]pyrazin-6-yl)amino)ethyl)phenyl)-6-(1H-imidazol-1-yl)-5-methylnicotinamide], the IC50 in test [1] and in test [2] was less than 300 nM throughout.

As to `COc1ccc(Cn2ccc3ncc(N[C@@H](C)c4cccc(NC(=O)c5cncc(C)c5)c4)cc32)cc1OC` [Compound 81, (S)-N-(3-(1-((1-(3,4-dimethoxybenzyl)-1H-pyrrolo [3,2-b]pyridin-6-yl)amino)ethyl)phenyl)-5-methylnicotinamide], the 50% inhibitory concentration (IC50) in test [1] and in test [2] was not below 1000 nM in each case.

With `CCn1cc2ncc(N[C@@H](C)c3cc(NC(=O)Cc4ccc(C)c(N5CCN(C)CC5)c4)ccc3C)nc2n1` [Compound 680, (S)-N-(3-(1-((2-ethyl-2H-pyrazolo[3,4-b]pyrazin-6-yl)amino)ethyl)-4-methylphenyl)-2-(4-methyl-3-(4-methylpiperazin-1-yl)phenyl) acetamide], the IC50 in test [1] and in test [2] was less than 300 nM in each case.

Take `Cc1cncc(C(=O)Nc2cccc([C@H](C)Nc3cnc4cnn(C5COC5)c4n3)c2)c1` [Compound 179, (S)-5-methyl-N-(3-(1-((1-(oxetan-3-yl)-1H-pyrazolo[3,4-b]pyrazin-6-yl)amino)ethyl)phenyl)nicotinamide]: the IC50 is 300 to 1000 nM in test [1] and not below 1000 nM in test [2].

Regarding `CCc1cc(C(=O)Nc2cccc([C@H](C)Nc3cnc4cn(CC)nc4n3)c2)ccc1CN1CC2(COC2)C1` [Compound 499, (S)-4-((2-oxa-6-azaspiro[3,3]heptan-6-yl)methyl)-3-ethyl-N-(3-(1-((2-ethyl-2H-pyrazolo[3,4-b]pyrazin-6-yl)amino)ethyl)phenyl)benzamide], the IC50 in test [1] and in test [2] was less than 300 nM throughout.

With `CCn1cc2ncc(N[C@@H](C)c3cccc(NC(=O)c4cncc(C)c4)c3)nc2n1` [Compound 9, (S)—N-(3-(1-((2-ethyl-2H-pyrazolo[3,4-b]pyrazin-6-yl)amino)ethyl)phenyl)-5-methylnicotinamide], the IC50 in test [1] was less than 300 nM; in test [2] it was 300 to 1000 nM.

Turning to `CCn1cc2ncc(N[C@@H](C)c3cc(NC(=O)Cc4cc(C)c(C)cn4)ccc3C)nc2n1` [Compound 694, (S)-2-(4,5-dimethylpyridin-2-yl)-N-(3-(1-((2-ethyl-2H-pyrazolo[3,4-b]pyrazin-6-yl)amino)ethyl)-4-methylphenyl) acetamide], the IC50 in test [1] and in test [2] was less than 300 nM in each case.

As for `CCn1cc2ncc(N[C@@H](C)c3cccc(NC(=O)c4ccc(CN5CCN(C)CC5)c(Cl)c4)c3)nc2n1` [Compound 417, (S)-3-chloro-N-(3-(1-((2-ethyl-2H-pyrazolo[3,4-b]pyrazin-6-yl)amino)ethyl)phenyl)-4-((4-methylpiperazin-1-yl)methyl) benzamide], the IC50 in test [1] and in test [2] was less than 300 nM throughout.
